This note sets out measurements from BindingDB's records for patent US20240140931 (Hutchmed, 2024).

This experiment addresses T1, Tyrosine-protein phosphatase non-receptor type 11 (Homo sapiens, UniProt Q06124).
T1 sequence (Q06124 whole entry): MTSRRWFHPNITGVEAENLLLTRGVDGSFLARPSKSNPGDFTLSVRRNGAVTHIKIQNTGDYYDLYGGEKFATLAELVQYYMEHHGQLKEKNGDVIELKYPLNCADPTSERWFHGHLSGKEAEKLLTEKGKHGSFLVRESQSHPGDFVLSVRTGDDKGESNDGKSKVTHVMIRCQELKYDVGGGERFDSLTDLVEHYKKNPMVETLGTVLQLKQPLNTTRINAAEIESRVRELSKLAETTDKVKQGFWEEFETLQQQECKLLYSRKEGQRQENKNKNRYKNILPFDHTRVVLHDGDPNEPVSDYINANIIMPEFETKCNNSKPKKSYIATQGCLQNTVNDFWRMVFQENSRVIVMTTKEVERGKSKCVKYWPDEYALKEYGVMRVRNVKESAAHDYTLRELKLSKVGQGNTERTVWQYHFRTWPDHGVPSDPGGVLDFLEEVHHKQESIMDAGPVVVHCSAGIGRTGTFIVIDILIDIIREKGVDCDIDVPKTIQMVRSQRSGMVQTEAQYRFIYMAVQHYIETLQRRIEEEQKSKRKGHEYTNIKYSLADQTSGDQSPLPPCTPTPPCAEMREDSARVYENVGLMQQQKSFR
Put plainly: Assay of Full-Length SHP2 Phosphatase Activity Assay. On the procedure: 1. Reagents and MaterialsHuman full-length SHP2 recombinant protein: BPS Bioscience, Cat #79018;SHP2 substrate DiFMUP (1 mM): BPS Bioscience, Cat #79769;SHP2 activating peptide (100 μM): BPS Bioscience, Cat #79319-2;DTT: Merck, Cat #DTT-RO;384-well plate: Corning, Cat #3575;96-well plate: Thermo Fisher Scientific, Cat #249952;Instrument: EnVision 2104, PerkinElmer.2. Preparation of Reaction SolutionsThe test compound was dissolved in DMSO and diluted with DMSO to 100.0 μM, and the compound was further 3-fold diluted with DMSO to: 100.00, 33.33, 11.11, 3.70, 1.23, 0.41, 0.14 and 0.05 μM.

`C#Cc1ccc2c(c1)[C@@H](N)C1(CCN(c3cc(=O)n(-c4ccc(F)c(F)c4Cl)c(C)n3)CC1)C2` (atropisomer, axis not shown) [US20240140931, Compound 113] came in with a half-inhibitory concentration (IC50) of 5 nM. The result for `C#Cc1ccc2c(c1)[C@@H](N)C1(CCN(c3cc(=O)n(-c4cc(OC)ccc4Cl)c(C)n3)CC1)C2` [US20240140931, Compound 44] reads 13 nM; that for `Cc1nc(N2CCC3(CC2)Cc2ccc(C#CCN(C)C)cc2[C@H]3N)cc(=O)n1-c1cccc(Cl)c1Cl` [US20240140931, Compound 52], under 0.5 nM; that for `Cc1nc(N2CCC3(CC2)Cc2ccc(SC4COC4)cc2[C@H]3N)cc(=O)n1-c1cccc(Cl)c1Cl` [US20240140931, Compound 81], 2 nM. `C#Cc1ccc2c(c1)[C@@H](N)C1(CCN(c3cc(=O)n(-c4cccc(C#N)c4Cl)c(C)n3)CC1)C2` [US20240140931, Compound 267]: the IC50 was over 100 nM.

`C#Cc1ccc2c(c1)[C@@H](N)C1(CCN(c3cc(=O)n(-c4cccc(C#N)c4Cl)c(C)n3)CC1)C2` [US20240140931, Compound 268] returned an IC50 of 1 nM. This lies in the single-digit nanomolar range.

For orientation: IC50 means the concentration needed to halve the response being measured. Read a high IC50 as weaker potency.
